Reference: ChEMBL document CHEMBL5236642, “Discovery of structural diverse reversible BTK inhibitors utilized to develop a novel in vivo CD69 and CD86 PK/PD mouse model” (Bioorg Med Chem Lett, 2023)
≈ marks a conversion by molar mass, not a printed value.

Key:
[1] = Solubility of the compound; type: physicochemical
[2] = Clearance in rat at 2 mg/kg, iv; type: ADME, organism-based; details: in vivo
[3] = Tmax in rat at 2 mg/kg, po; type: ADME, organism-based; details: in vivo
[4] = Oral bioavailability in rat at 2 mg/kg; type: ADME, organism-based; details: in vivo
[5] = Half-life in rat at 2 mg/kg, iv; type: ADME, organism-based; details: in vivo
[6] = Oral bioavailability in Sprague-Dawley rat at 5 mg/kg; type: ADME, organism-based; details: in vivo
[7] = Half-life in Sprague-Dawley rat at 1 mg/kg, iv; type: ADME, organism-based; details: in vivo
[8] = Apparent permeability from apical to basolateral side in human CaCo-2/TC-7 cells; type: ADME, cell-based, Caco2/TC7
[9] = Volume of distribution at steady state in Sprague-Dawley rat at 1 mg/kg, iv; type: ADME, organism-based; details: in vivo, read-out: Vdss
[10] = Tmax in Sprague-Dawley rat at 5 mg/kg, po; type: ADME, organism-based; details: in vivo

solubility [1] | CL [2] | Tmax [3] | bioavailability [4] | half-life [5] | bioavailability [6] | half-life [7] | Papp A→B [8] | Vd [9] | Tmax [10] | Structure (SMILES)
39 µg/mL (≈ 93 µM) | – | – | – | – | – | – | – | – | – | O=C(CNc1cc(Cl)cc(Cl)c1)NC1CCCN(c2ncnc3[nH]ccc23)C1 (stereo not given)
– | 8 mg/mL/kg | 2 h | 98% | 13.3 h | – | – | – | – | – | O=C(CNc1cc(Cl)cc(Cl)c1)N1CCC[C@@H](Nc2ncnc3[nH]ccc23)C1
– | – | – | – | – | 23% | 5.3 h | 150 ×10⁻⁶ cm/s | 1.3 L/kg | 1.6 h | C[C@@H]1[C@H](Nc2ncnc3[nH]ccc23)CCCN1C(=O)CNc1cc(Cl)cc(Cl)c1
– | – | – | – | – | 34% | 0.9 h | 190 ×10⁻⁶ cm/s | 1.1 L/kg | 0.87 h | O=C(CNc1cc(Cl)cc(Cl)c1)N1CC[C@H]2CCN(c3ncnc4[nH]ccc34)[C@H]2C1
